Patent publication US20050124634A1, “1,4-dihydropyridine compounds, pharmaceutical compositions, and methods for the treatment of cardiovascular disease” (MYOGEN, INC., priority 2003, published 2005)

Legend:
[1] = test system: α-MyHC protein levels; test: α-MyHC cytoblot assay in neonatal rat ventricular myocytes (NRVM); assay type: cell-based; settings: NRVM, 3 days
Experimental: FIG. 1 Concentration-dependent effect of Compound 1 on α-MyHC protein levels in the cytoblot assay. NRVM are cultured for 3 days in serum-free medium in the presence of differing amounts of Compound 1. At the end of the culture period, NRVM are fixed and analyzed for α-MyHC protein levels using the BA-G5 monoclonal antibody specific for α-MyHC. Results are collected as RLU using a Packard Fusion Plate reader, and normalized to the signal from samples cultured in the absence of compound (control, set to 100%).
Preparation and culture of neonatal rat ventricular myocytes (NRVM) was performed by removing hearts from 1-3 day old rat neonatal pups, along with the atria and lungs. The ventricles were cut into smaller pieces and digested 3 times with collagenase for 20-30 min at 37° C. The myocytes were then separated from other cell types using a Percoll gradient. The myocyte layer was collected, washed 2 times, and plated on tissue culture grade 10 cm Petri dishes for 1-2 hrs. The non-adherent cells (myocytes) were removed and plated in Costar clear view 96 well plates coated with 0.2% gelatin for at least 2 hrs. The gelatin solution was removed, and the myocytes were resuspended in DMEM high glucose media (Mediatech) containing 10% charcoal/dextran treated FBS (Hyclone) and 1% Penicillin-Streptomycin-Glutamine (PSG, Gibco). Ten thousand NRVM were plated per well in a 100 μl volume, and incubated overnight at 37° C. in 5% CO2 in air. The following day, the media was replaced with 100 μl of serum-free DMEM high glucose medium supplemented with PSG and 0.3% Nutridoma-SP (Roche).
Compounds were reconstituted in DMSO at 30 mM, and aliquots were stored at −20° C. A 1:1000 dilution was prepared in serum-free DMEM medium supplemented with PSG and 0.3% Nutridoma, and sonicated for 5 min at room temperature. After sonication, additional 3 fold dilutions were prepared in the same medium. Diluted compound was then added to the NRVM cultures in a volume of 100 μl. A 100 mM thyroid hormone stock solution (T3, Calbiochem) was prepared in 100 mM NaOH and added at a final concentration of 3 nM in DMEM medium supplemented with PSG and 0.3% Nutridoma-SP (Roche). NRVM were cultured for 3 days before detection of α-myosin heavy chain (α-MyHC) protein levels in the cytoblot assay.
For the α-MyHC cytoblot assay, NRVM cultures were analyzed for α-MyHC protein levels after 3 days of incubation. NRVM were washed 2 times with PBS, fixed with methanol for 30 min at 4° C., and washed an additional 2 times with PBS. Blocking solution consisting of PBS with 1% bovine serum albumin (BSA, Fisher Biotech) was added for 1 hr at room temperature before addition of a saturating amount of supernatant containing an α-MyHC specific antibody for 60 min at room temperature (BA-G5 hybridoma, ATTC). Two washes were performed with PBS/1% BSA, and a 1:500 dilution of HRP-goat anti-mouse IgG (Southern Biotech) diluted in PBS/1% BSA was added for 60 min at room temperature. Excess antibody was removed with 3 PBS washes, and a chemiluminescent substrate was added (Pierce SuperSignal West Pico Chemiluminscent Substrate) for 5 min before quantitation on a Packard Fusion Plate Reader.
As shown above in Table 1, Compound 1 increased α-MyHC protein levels as determined by an α-MyHC cytoblot assay. Compound 1 was added to NRVM at concentration ranging from 3 nM to 30 μM. After 3 days of incubation with NRVM, α-MyHC protein levels were detected in the cytoblot assay and quantitated (FIG. 1). […] An increase in α-MyHC protein levels was first detected beginning at 30 nM, with a maximal response observed at 3 μM. In six independent experiments, the concentration of Compound 1 that gave a half-maximal response was on average 60 nM.

[2] = test system: α-MyHC protein; test: α-MyHC protein levels in NRVM by Western blotting; assay type: cell-based, rat; settings: NRVM stimulated 3 days; Compound 1 10 nM to 10 μM
Experimental: FIG. 2 Effect of Compound 1 on α-MyHC protein levels as detected by Western blotting. NRVM are stimulated with Compound 1 at different concentrations for 3 days. Protein extracts are prepared, proteins are separated by SDS-PAGE electrophoresis, transferred to PVDF membrane, and detected with an anti-α-MyHC monoclonal antibody.
As an independent measure of changes in α-MyHC protein levels, NRVM stimulated with Compound 1 were analyzed for α-MyHC protein levels by Western blotting. Protein extracts prepared from NRVM stimulated with a range of concentrations of Compound 1 from 10 nM to 10 μM were separated by SDS-PAGE and transferred to PVDF membrane. Levels of α-MyHC protein were detected by Western blotting using the same anti-α-MyHC monoclonal antibody used in the cytoblot assay. […] This experiment verified that the changes in α-MyHC protein detected in the cytoblot assay were also evident by Western blotting.

[3] = test system: secretion of atrial natriuretic factor; test: Anti-hypertrophic activity in NRVM, ANF ELISA (ANF secretion); assay type: cell-based, rat; settings: Rattus norvegicus, read-out: IC50 of the ANF ELISA (antihypertrophic activity)
Experimental: Anti-hypertrophic Activity of Racemic Compound 1 and Purified Enantiomers of Compound 1. Neonatal rat ventricular myocytes (NRVM) were isolated from 1 to 3 day-old Sprague-Dawley rats using enzymatic digestion and myocyte enrichment techniques. NRVM were cultured in serum-containing media for 18 hours. For the continuation of culture, serum-free media was used. Hypertrophy of NRVM was induced using pharmacological stimuli, including phenylephrine, endothelin-1, and […]. Hypertrophic responses were determined using methods including the following: measurement of total cellular protein; secretion of atrial natriuretic factor; determination of cell volume; determination of the expression of so-called fetal genes such as atrial natriuretic factor, beta-myosin heavy chain and alpha-skeletal actin. ANF secretion was the most sensitive assay for measuring hypertrophy, and the IC50 of the ANF ELISA was the measurement used to determine antihypertrophic activity.

With `CC(=O)C1=C(C)NC(SCC(=O)c2cccc([N+](=O)[O-])c2)=C(C#N)C1c1ccccc1Cl` (racemic) [Compound 1] the “% increase of a-MyHC over baseline at 10 mM Cpd” value ([1]; 10 mM Cpd) was 206%, the “concentration at which an increase in α-MyHC protein levels was first detected” value ([1]; tested 3 nM to 30 μM) was 30 nM and the “concentration at which maximal response was observed” value ([1]; tested 3 nM to 30 μM) was 3 µM. For the same compound, the EC50 ([1]; Rattus norvegicus, Ventricular myocyte, 72 h, average of six independent experiments, read-out: concentration that gave a half-maximal response (α-MyHC protein levels)) was 60 nM, the “α-MyHC protein levels by Western blotting” value [2] was “increasing amounts of α-MyHC protein were observed with increasing amounts of Compound 1” and the IC50 [3] was 427 nM.
